Structures can show the parent of a compound that is named as a salt. The source made the active and inactive calls. No cut-off for these calls is given here.
What was measured:
[1] = system: PC-3; test: cells; format: functional, cell-based; details: Homo sapiens, PC-3, 24 h
Description: Anticancer activity against human PC-3 cells assessed as cell growth inhibition measured after 24 hrs by MTT assay

[2] = system: DU-145; test: cells; format: functional, cell-based; details: Homo sapiens, DU-145, 24 h
Description: Anticancer activity against human DU-145 cells assessed as cell growth inhibition measured after 24 hrs by MTT assay

[3] = system: DLD-1; test: cells; format: functional, cell-based; details: Homo sapiens, DLD-1, 24 h
Description: Anticancer activity against human DLD-1 cells assessed as cell growth inhibition measured after 24 hrs by MTT assay

[4] = system: HEK293; test: cells; format: ADME, cell-based; details: Homo sapiens, HEK293, 24 h
Description: Cytotoxicity against HEK293 cells assessed as cell growth inhibition measured after 24 hrs by MTT assay

[5] = system: HepG2; test: cells; format: functional, cell-based; details: Homo sapiens, HepG2, 24 h
Description: Anticancer activity against human HepG2 cells assessed as cell growth inhibition measured after 24 hrs by MTT assay

[6] = system: MCF7; test: cells; format: functional, cell-based; details: Homo sapiens, MCF7, 24 h
Description: Anticancer activity against human MCF7 cells assessed as cell growth inhibition measured after 24 hrs by MTT assay

[7] = system: A549; test: cells; format: functional, cell-based; details: Homo sapiens, A549, 24 h
Description: Anticancer activity against human A549 cells assessed as cell growth inhibition measured after 24 hrs by MTT assay

[8] = system: MDA-MB-231; test: cells; format: functional, cell-based; details: Homo sapiens, MDA-MB-231, 24 h
Description: Anticancer activity against human MDA-MB-231 cells assessed as cell growth inhibition measured after 24 hrs by MTT assay

[9] = target: Tubulin (Homo sapiens) (UniProt P68371+Q9H4B7+P0DPH7+P68366+Q13509+Q71U36+P04350+Q3ZCM7+P07437+P68363+Q9BQE3+Q6PEY2+Q13885+Q9BVA1+Q9BUF5); test: Inhibition of tubulin (unknown origin) polymerization assessed as stabilization of microtubules at10 uM measured up to 60 mins in presence of GTP; format: protein-complex assay; details: dose 10.0 µM, time min <=60
[10] = system: MDA-MB-231; test: Induction of mitochondrial membrane depolarization in human MDA-MB-231 cells at 10 uM measured after 24 hrs by JC-1 staining based flow cytometry analysis (reference value: 0.89 to 3.24 %); format: functional
[11] = system: DNA; test: Binding affinity to DNA (unknown origin) at 0.1 to 0.2 mM by agarose gel electrophoresis; format: nucleic-acid assay; details: dose mM 0.1-0.2

Structure (SMILES)	IC50 [1]	IC50 [2]	IC50 [3]	IC50 [5]	IC50 [6]	IC50 [7]	IC50 [8]	Activity [9]	Activity [11]	IC50 [4]	Activity [10]
COc1cc2c3cc(C)c4c(c3n(Cc3ccccc3)c2cc1OC)C=CC(C)(C)O4	29.2 µM	> 100 µM	42.1 µM	47.1 µM	71.9 µM	80.1 µM	28.5 µM			> 100 µM	
COc1cc2c3cc(C)c4c(c3n(Cc3cc(Cl)ccc3Cl)c2cc1OC)C=CC(C)(C)O4	7.4 µM	> 100 µM	35.4 µM	33.8 µM	29.4 µM	14.8 µM	19.7 µM				
N#CC(C#N)=NNc1cccc(Cl)c1 [CARBONYL CYANIDE M-CHLOROPHENYLHYDRAZONE]											12.75%
COc1cc2[nH]c3c4c(c(C=O)cc3c2cc1OC)OC(C)(C)C=C4	27.3 µM	70 µM	> 100 µM	35.5 µM	> 100 µM	33.6 µM	8.3 µM			> 100 µM	
COc1ccc2c(c1)c1cc(C)c3c(c1n2Cc1ccccc1)C=CC(C)(C)O3	74.9 µM	> 100 µM	52.8 µM	41.8 µM	> 100 µM	64 µM	46.5 µM			> 100 µM	
COc1cccc2c1C(=O)c1c(O)c3c(c(O)c1C2=O)C[C@@](O)(C(=O)CO)C[C@@H]3O[C@H]1C[C@H](N)[C@H](O)[C@H](C)O1 [DOXORUBICIN]			10.2 µM	8 µM					Active		
COc1cccc(Cn2c3cc(OC)c(OC)cc3c3cc(C)c4c(c32)C=CC(C)(C)O4)c1	20 µM	> 100 µM	56.1 µM	41.8 µM	65.6 µM	29.1 µM	33.4 µM				
COc1cc2c3cc(C)c4c(c3n(C/C(I)=C\I)c2cc1OC)C=CC(C)(C)O4	9.6 µM	47.6 µM	8.5 µM	15.5 µM	44.9 µM	71.7 µM	4.4 µM			> 100 µM	
CC/C(=C(\c1ccccc1)c1ccc(OCCN(C)C)cc1)c1ccccc1 [TAMOXIFEN CITRATE]	11.7 µM	11.2 µM			6.2 µM		12.8 µM			27.3 µM	
COc1cc2c3cc(C)c4c(c3n(Cc3cccc(C)c3)c2cc1OC)C=CC(C)(C)O4	14.1 µM	> 100 µM	73.4 µM	9.6 µM	64.9 µM	96.6 µM	28 µM			> 100 µM	

More lines, main results first:

IC50 [1]	IC50 [2]	IC50 [3]	IC50 [5]	IC50 [6]	IC50 [7]	IC50 [8]	Activity [9]	Activity [11]	Structure (SMILES)	IC50 [4]	Activity [10]
							Active		CC(=O)O[C@H]1C(=O)[C@@]2(C)[C@H]([C@H](OC(=O)c3ccccc3)[C@]3(O)C[C@H](OC(=O)[C@H](O)[C@@H](NC(=O)c4ccccc4)c4ccccc4)C(C)=C1C3(C)C)[C@]1(OC(C)=O)CO[C@@H]1C[C@@H]2O		
> 100 µM	> 100 µM	75.3 µM	42.9 µM	> 100 µM	> 100 µM	36.5 µM			C=CCn1c2cc(OC)c(OC)cc2c2cc(C)c3c(c21)C=CC(C)(C)O3	> 100 µM	
76.1 µM	> 100 µM	> 100 µM	38.8 µM	> 100 µM	51.5 µM	9.7 µM			C#CCn1c2cc(OC)c(OC)cc2c2cc(C)c3c(c21)C=CC(C)(C)O3	> 100 µM	
56.4 µM	> 100 µM	54.7 µM	33.3 µM	3.9 µM	> 100 µM	2.6 µM			COc1ccc2[nH]c3c4c(c(C=O)cc3c2c1)OC(C)(C)C=C4 [CLAULANSINE F]	2.5 µM	
77.2 µM	> 100 µM	> 100 µM	> 100 µM	> 100 µM	> 100 µM	> 100 µM			COc1cccc(Cn2c3cc(OC)c(OC)cc3c3cc(C=O)c4c(c32)C=CC(C)(C)O4)c1		
70.5 µM	> 100 µM	> 100 µM	> 100 µM	72.4 µM	> 100 µM	> 100 µM			COc1cc2c3cc(C=O)c4c(c3n(Cc3cccc(Cl)c3)c2cc1OC)C=CC(C)(C)O4		
15.2 µM	> 100 µM	> 100 µM	16 µM	59.1 µM	56.5 µM	> 100 µM			COc1ccc2c(c1)c1cc(C)c3c(c1n2Cc1ccccc1Br)C=CC(C)(C)O3	> 100 µM	
33.1 µM	> 100 µM	54.2 µM	9.1 µM	51.8 µM	53.3 µM	> 100 µM			COc1ccc2c(c1)c1cc(C)c3c(c1n2Cc1cc(F)ccc1F)C=CC(C)(C)O3	> 100 µM	
32.9 µM	> 100 µM	> 100 µM	42.4 µM	32.8 µM	36.6 µM	30.7 µM			COc1ccc2c(c1)c1cc(C=O)c3c(c1n2Cc1ccccc1)C=CC(C)(C)O3		
13.3 µM	> 100 µM	34.1 µM	36.8 µM	> 100 µM	88 µM	23.2 µM			COc1ccc2c(c1)c1cc(C)c3c(c1n2Cc1ccc(F)cc1F)C=CC(C)(C)O3	> 100 µM	
9.3 µM	36.6 µM	35.9 µM	8.2 µM	70.7 µM	24.4 µM	36.7 µM			COc1cc2c3cc(C)c4c(c3n(Cc3ccccc3Br)c2cc1OC)C=CC(C)(C)O4	> 100 µM	
35.5 µM	55.7 µM	73.1 µM	34.6 µM	48.2 µM	35.7 µM	46.5 µM			COc1ccc2c(c1)c1cc(C)c3c(c1n2Cc1cccc(C)c1)C=CC(C)(C)O3	> 100 µM	
> 100 µM	> 100 µM	50.1 µM	> 100 µM	> 100 µM	> 100 µM	52.4 µM			C#CCn1c2ccc(OC)cc2c2cc(C)c3c(c21)C=CC(C)(C)O3	> 100 µM	

Reference: ChEMBL document CHEMBL4665628, “Pyranocarbazole derivatives as potent anti-cancer agents triggering tubulin polymerization stabilization induced activation of caspase-dependent apoptosis and downregulation of Akt/mTOR in breast cancer cells” (Eur J Med Chem, 2019)
